Assay results taken from US11241442B2, “Methods of use for TRP channel antagonist-based combination cancer therapies” (President and Fellows of Harvard College, priority 2017, dated 2022).

Legend:
Assay type in all cases: cell-based
EL-12-58 cells [1] = assay: Live cell number under carboplatin in EL-12-58 cells; conditions: 10 μM AP-18, carboplatin 72 h
Method: (§1) For the measurements of live cell number and cell death under treatment with H2O2, diamide, or chemotherapies, cells were cultured on 96-well plates in the presence or absence of these drugs for indicated times and stained with 5 μM bisBenzimide H 33342 trihydrochloride (Hoechst; Sigma) and 5 μM propidium iodide (PI; Sigma) for 1 h at 37° C. Hoechst- and/or PI-positive cells were counted using a laser scanning cytometer, Acumen Cellista (TTPLabTech). Apoptotic cells induced by H2O2 treatment were measured by staining with Annexin V-Alexa Fluor® 488 conjugate (Life Technologies) and PI in Ca^2+-containing solution (10 mM HEPES pH 7.4, 140 mM NaCl; 2.5 mM CaCl2), followed by flow cytometric measurement of fluorescence using a FACSCalibur. Flow cytometry plots are representative of three independent experiments. […] Viable cells were counted using the Countless Automated Cell Counters (Thermo Fisher Scientific). […] Hoechst- and/or PI-positive areas were measured using Acumen Cellista. Apoptotic cells induced by detachment were measured by staining with 5 μM Hoechst and 5 μM of CellEvent™ Caspase-3/7 Green Detection Reagent (Thermo Fisher Scientific) for 1 h at 37° C. without enzymatic dissociation of cell clumps. Hoechst- and/or CellEvent™ Caspase-3/7 Green Detection Reagent-positive areas were measured using Acumen Cellista. […]

HCC1569 cells = assay: Live cell number and cell death under carboplatin in HCC1569 cells; conditions: carboplatin 72 h
Method: For the measurements of live cell number and cell death under treatment with H2O2, diamide, or chemotherapies, cells were cultured on 96-well plates in the presence or absence of these drugs for indicated times and stained with 5 μM bisBenzimide H 33342 trihydrochloride (Hoechst; Sigma) and 5 μM propidium iodide (PI; Sigma) for 1 h at 37° C. Hoechst- and/or PI-positive cells were counted using a laser scanning cytometer, Acumen Cellista (TTPLabTech). Apoptotic cells induced by H2O2 treatment were measured by staining with Annexin V-Alexa Fluor® 488 conjugate (Life Technologies) and PI in Ca^2+-containing solution (10 mM HEPES pH 7.4, 140 mM NaCl; 2.5 mM CaCl2), followed by flow cytometric measurement of fluorescence using a FACSCalibur. Flow cytometry plots are representative of three independent experiments. For the counting of viable cells cultured in suspension, cell clumps were dissociated with trypsin and stained with trypan blue. Viable cells were counted using the Countless Automated Cell Counters (Thermo Fisher Scientific). For the measurement of percentage of dead cells cultured in suspension, cells were cultured on poly HEMA-coated 96-well plates and stained with 5 μM Hoechst and 5 μM PI for 1 h at 37° C. without enzymatic dissociation of cell clumps. Hoechst- and/or PI-positive areas were measured using Acumen Cellista. Apoptotic cells induced by detachment were measured by staining with 5 μM Hoechst and 5 μM of CellEvent™ Caspase-3/7 Green Detection Reagent (Thermo Fisher Scientific) for 1 h at 37° C. without enzymatic dissociation of cell clumps. Hoechst- and/or CellEvent™ Caspase-3/7 Green Detection Reagent-positive areas were measured using Acumen Cellista. For the cell cycle analysis, enzymatically dissociated cells were fixed with ice-cold 70% EtOH for at least 30 min at 4° C., washed three times with PBS at 4° C., resuspended in PBS, treated with 100 μg/ml RNase A (Sigma), and stained with 50 μg/ml PI. The stained samples were subjected to flow cytometric analysis (FACSCalibur).

MCF-10A acini = assay: [H2O2]i by Hyper-2 in MCF-10A 3D acini
Method: For the measurement of [H2O2]i levels in MCF-10A acini and HCC1569 spheroids, cells were transduced with a lentiviral vector encoding Hyper-2 or Hyper-2 (C199S). The Hyper-2 fluorescence was measured at 37° C. in HEPES-buffered saline (HBS) containing the following (in mM): 150 NaCl, 6 KCl, 1.2 MgSO4, 2 CaCl2, 11.5 glucose, and 25 HEPES (pH adjusted to 7.4 with NaOH). Fluorescence images of the cells were acquired through the Eclipse Ti-E microscope (Nikon) with ORCA-R2 cooled CCD camera (Hamamatsu Photonics) and analyzed with Metafluor image acquisition software (Molecular Devices). The 488:405-nm ratio images were obtained on a pixel-by-pixel basis. 3D images are shown as one section from midstructure. For the measurement of [H2O2]i levels in MCF-10A cells cultured in suspension, cell clumps were dissociated with trypsin and stained with 10 μM peroxy green-1 for 30 min at 37° C. Cells were then subjected to flow cytometric analysis (FACSCalibur; BD Biosciences). ROS levels determined by flow cytometry are reported as mean fluorescence intensity expressed in arbitrary units. Hyper-2 ratio images are representative from two independent experiments and averaged Hyper-2 ratio represents mean±SD from the sum of two independent experiments.

TRPA1 [2] = target: T1, TRPA1 (Homo sapiens, UniProt O75762); assay: AITC-evoked [Ca2+]i rises in TRPA1-enriched MPNST cells; conditions: 10 μM AP-18, 30 μM AITC
T1 construct: endogenous in cells; host or cells: HCC1569 breast cancer cells (2D culture or 3D spheroids; shGFP or shTRPA1 transduced)
T1 sequence (O75762 whole entry): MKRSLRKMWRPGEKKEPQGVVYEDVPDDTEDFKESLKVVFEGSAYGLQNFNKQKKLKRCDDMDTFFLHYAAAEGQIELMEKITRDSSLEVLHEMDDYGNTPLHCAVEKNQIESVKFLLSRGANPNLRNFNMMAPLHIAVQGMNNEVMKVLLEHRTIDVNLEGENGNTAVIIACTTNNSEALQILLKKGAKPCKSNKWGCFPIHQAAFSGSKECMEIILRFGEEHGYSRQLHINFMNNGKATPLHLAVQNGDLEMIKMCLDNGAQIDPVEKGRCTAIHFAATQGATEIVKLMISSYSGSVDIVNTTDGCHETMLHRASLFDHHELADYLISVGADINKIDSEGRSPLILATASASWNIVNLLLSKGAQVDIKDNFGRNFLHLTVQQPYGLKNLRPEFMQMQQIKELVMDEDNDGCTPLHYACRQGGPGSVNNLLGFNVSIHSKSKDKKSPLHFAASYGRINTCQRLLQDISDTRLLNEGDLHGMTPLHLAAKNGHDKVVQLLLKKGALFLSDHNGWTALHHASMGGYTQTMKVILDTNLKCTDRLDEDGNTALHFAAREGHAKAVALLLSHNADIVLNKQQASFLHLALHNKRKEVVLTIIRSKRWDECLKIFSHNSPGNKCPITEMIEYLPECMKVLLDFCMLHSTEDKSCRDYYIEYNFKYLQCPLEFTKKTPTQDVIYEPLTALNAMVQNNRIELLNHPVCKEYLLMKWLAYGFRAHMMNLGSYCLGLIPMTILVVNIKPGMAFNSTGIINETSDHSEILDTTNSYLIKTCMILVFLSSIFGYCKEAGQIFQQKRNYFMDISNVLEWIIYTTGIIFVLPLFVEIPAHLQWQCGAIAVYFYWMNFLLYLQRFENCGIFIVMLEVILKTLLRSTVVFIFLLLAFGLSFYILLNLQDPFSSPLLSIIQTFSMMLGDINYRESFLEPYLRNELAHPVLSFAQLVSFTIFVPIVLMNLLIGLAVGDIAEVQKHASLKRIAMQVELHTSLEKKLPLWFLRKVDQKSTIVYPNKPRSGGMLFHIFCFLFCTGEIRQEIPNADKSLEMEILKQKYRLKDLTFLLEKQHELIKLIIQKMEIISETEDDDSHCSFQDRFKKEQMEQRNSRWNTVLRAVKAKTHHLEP
Method: (§2) For the measurement of [Ca^2+]i levels in cells cultured in 2D or 3D (in Matrigel), cells were stained with 3.5 μM fura-2-AM (Life Technology) in the presence of 2.5 mM probenecid (Sigma) and 0.02% Pluronic F-127 (Sigma) for 45 min at 37° C. The fura-2 fluorescence was measured in HBS solution containing 1.25 mM probenecid at 37° C. Fluorescence images of the cells were acquired through the Eclipse Ti-E microscope with ORCA-R2 cooled CCD camera and analyzed with Metafluor. The 340:380-nm ratio images were obtained on a pixel-by-pixel basis and were converted to Ca^2+ concentrations by in vivo calibration using 5 μM ionomycin as described previously (Nishida et al., Biochem. Biophys. Res. Commun., 262:350-354, 1999). 3D images are shown as one section from midstructure. For the measurement of [Ca^2+]i levels in cells cultured in suspension, cell clumps were dissociated with trypsin and [Ca^2+]i levels were determined by using Fluo-4 NW Calcium Assay Kit (Molecular Probes). Cells were stained with Fluo-4 according to the manufacturer's instructions and subjected to flow cytometric analysis (FACSCalibur) using HBS as sheath fluid. [Ca^2+]i levels determined by flow cytometry are reported as mean fluorescence intensity expressed in arbitrary units. […]

MPNST cells = assay: H2O2- and carboplatin-induced cytotoxicity in MPNST cells; conditions: TRPA1 expression-dependent
Method: as §1

HCC1500 = assay: Live cell number under carboplatin in HCC1500 cells; conditions: 10 μM AP-18; carboplatin 72 h; HCC1500, very low TRPA1
Method: as §1

BT-549 = assay: Live cell number under carboplatin in BT-549 cells; conditions: 10 μM AP-18; carboplatin 72 h; BT-549, very low TRPA1
Method: as §1

EL-12-58 cells [3] = assay: Live cell number and cell death under H2O2 in EL-12-58 cells; conditions: 10 μM AP-18; H2O2 for 72 h
Method: as §1

TRPA1 [4] = target: T1, TRPA1; assay: AITC-evoked [Ca2+]i rises in TRPA1-enriched NSCLC cells; conditions: 10 μM AP-18, 30 μM AITC
Method: as §2

With AP-18 the sensitization to carboplatin (EL-12-58 cells [1]) was “sensitized”, the “cell death in response to carboplatin treatment” value (HCC1569 cells) was “enhanced” and the “live cell number in response to carboplatin treatment” value (HCC1569 cells) was “substantially suppressed”. For the same substance, the “increase in [H2O2]i (Hyper-2) in inner ECM-deprived cells” value (MCF-10A acini) was “unaffected”, the “inhibition of AITC-induced [Ca2+]i rises” value (TRPA1 [2]) was “abolished” and the “sensitization to carboplatin-induced cytotoxicity” value (MPNST cells; 10 μM AP-18, carboplatin 72 h) was “sensitized”. The “sensitization to H2O2-induced cytotoxicity” value (MPNST cells) was “sensitized”, the sensitization to carboplatin (HCC1500) was “minimal to no effect” and the sensitization to carboplatin (BT-549) was “minimal to no effect”. The “sensitization to H2O2 cytotoxicity” value (EL-12-58 cells [3]) was “sensitized” and the “inhibition of AITC-induced [Ca2+]i rises” value (TRPA1 [4]) was “abolished”.
